Data reported in patent publication US20080145313A1, “Compositions and Methods for the Treatment and Prevention of Neoplastic Disorders” (Genesis Research & Development Corporation Limited, priority 2006, published 2008).

system: A549 cells; test: Growth inhibition of siRNA-transfected A549 cells, SYBR Green I DNA content; type: cell-based, human; settings: 10 nM siRNA; DNA content 96 hours after transfection
Protocol: A549 cells (human lung cancer cell line; ATCC No. CCL-185), SK-MeI-5 cells (human melanoma cell line; ATCC No. HTB-70), MCF-7 cells (human adenocarcinoma cell line; ATCC No. HTB-22), HCT-116 cells (colorectal carcinoma; ATCC CCL-247) and HCT-116 p53 null cells (derived from ATCC No. CCL-247; Bunz et al., Science 282:1497-1501, 1998) were cultured in RPMI 1640 medium with 10% v/v heat-inactivated fetal calf serum (FCS). Cells were seeded at a density of 5×10^4 cells/cm^2 in multi-well tissue culture plates. Sequences of Stealth™ siRNA duplexes (Invitrogen) targeting human ribonucleotide reductase subunit 1 (SEQ ID NO: 22) and subunit 2 (SEQ ID NO; 38) are given in SEQ ID NO: 4830-4832 (DNA), and SEQ ID NO: 5136-5138 (RNA) for RRM1, and SEQ ID NO: 5306-5308 (DNA), and SEQ ID NO: 5303-5305 (RNA) for RRM2. siRNAs were transfected at different concentrations into cells using Lipofectamine™ RNAiMAX transfection reagent (Invitrogen). Non-specific siRNA (SEQ ID NO: 4804 and 4805 (DNA), and SEQ ID NO: 5301 and 5302 (RNA)) were used as controls. The cellular DNA content was measured using a SYBR Green I-based fluorometric assay at 24, 48, 72 and 96 hours after transfection (120 hours for the MCF-7 cells), as follows. At the indicated time points following reverse transfection, cells were harvested and frozen at −80° C. overnight. Cells were thawed and cell lysis buffer (phosphate-buffered saline (PBS) containing 1% Triton X-100, pH 7) and SYBR Green I (1:10^5 V/V; Invitrogen) was added to the wells and incubated overnight in the dark at 4° C.
The following day, cell lysates were mixed thoroughly, and DNA fluorescence was measured with a Wallac Victor^2 plate reader (Turku, Finland) set at an excitation frequency of 485 nm and measuring emission at 535 nm.
To determine the duration of the knock-down effect of RRM1-targeting siRNA, A549 cells were reverse transfected with 1 or 10 nM RRM1-3 (SEQ ID NO: 4832 (DNA, and SEQ ID NO: 5138 (RNA)) or control siRNA (SEQ ID NO: 4804 (DNA), and SEQ ID NO: 5301 (RNA)), and growth followed over time. Growth inhibition was measured daily as described above for up to ten days. RRM1-3-mediated RRM1 silencing inhibited growth for at least 10 days post-transfection at both 1 and 10 nM (FIG. 11).
siRNA-mediated inhibition of cancer cell growth was determined in A549 cells as follows. A549 cells (human lung cancer cell line; ATCC No. CCL-185) were cultured in RPMI 1640 medium with 10% v/v heat-inactivated fetal calf serum. Cells were seeded at a density of 5×10^3 cells/cm^2 in multi-well tissue culture plates. Stealth™ siRNA duplexes (Invitrogen) targeting genes involved in cancer energy and metabolism pathways and listed in Table 9, were transfected at 10 nM into cells using Lipofectamine™ RNAiMAX transfection reagent (Invitrogen). Non-specific siRNA (SEQ ID NO: 4804 and 4805 (DNA), and SEQ ID NO: 5301 and 5302 (RNA)) were used as controls. The cellular DNA content was measured using a SYBR Green I-based fluorometric assay at 96 hours after transfection. The cells were harvested and frozen at −80° C. overnight. Cells were thawed and cell lysis buffer (phosphate-buffered saline (PBS) containing 1% Triton X-100, pH 7) and SYBR Green I (1:10^5 v/v; Invitrogen) was added to the wells and incubated overnight in the dark at 4° C. The following day, cell lysates were mixed thoroughly, and DNA fluorescence was measured with a Wallac Victor^2 plate reader (Turku, Finland) set at an excitation frequency of 485 nm and measuring emission at 535 nm.
Three different siRNAs were tested for each target gene. The average fluorescence units from three replicate wells, representing the amount of DNA per well, were used to determine the effect on growth inhibition. The results are given in Table 10 (energy and metabolism gene targets) and Table 11 (transporter gene targets).
siRNA-mediated RNAi was also determined on a panel of different cell lines. […]

Row | Substance | Growth Inhibition in A549 cells
1 | SEQ ID NO: 4806: siRNA targeting ARNT (HIF-1β) (chain 1 ATCAGTGGATGTGTTGCCAGTTCCC; chain 2 AUCAGUGGAUGUGUUGCCAGUUCCC; chemistry not given here; one strand in two spellings) | − (no growth inhibition with any siRNA)
2 | SEQ ID NO: 4807: siRNA targeting ARNT (HIF-1β) (chain 1 TGCACCTGATCATAGAGTGTGCTGC; chain 2 UGCACCUGAUCAUAGAGUGUGCUGC; chemistry not given here; one strand in two spellings) | + (inhibits by at least 50%)
3 | SEQ ID NO: 4808: siRNA targeting ARNT (HIF-1β) (chain 1 TCTCATGGAAGACTGCTGACCTTCC; chain 2 UCUCAUGGAAGACUGCUGACCUUCC; chemistry not given here; one strand in two spellings) | − (no growth inhibition with any siRNA)
4 | SEQ ID NO: 4809: siRNA targeting H6PD (G6PDH) (chain 1 TTTGCCAGACATCAGGATGAAAGGC; chain 2 UUUGCCAGACAUCAGGAUGAAAGGC; chemistry not given here; one strand in two spellings) | ++ (inhibits by at least 75%)
5 | SEQ ID NO: 4810: siRNA targeting H6PD (G6PDH) (chain 1 TCTTGAACAAGATCCGAGCGTAGCC; chain 2 UCUUGAACAAGAUCCGAGCGUAGCC; chemistry not given here; one strand in two spellings) | − (no growth inhibition with any siRNA)
6 | SEQ ID NO: 4811: siRNA targeting H6PD (G6PDH) (chain 1 TTATGGAGACATGTCCCTGGAGCTC; chain 2 UUAUGGAGACAUGUCCCUGGAGCUC; chemistry not given here; one strand in two spellings) | − (no growth inhibition with any siRNA)
7 | SEQ ID NO: 4812: siRNA targeting HK-II (chain 1 ATACTGGTCAACCTTCTGCACTTGG; chain 2 AUACUGGUCAACCUUCUGCACUUGG; chemistry not given here; one strand in two spellings) | − (no growth inhibition with any siRNA)
8 | SEQ ID NO: 4814: siRNA targeting HK-II (chain 1 TTAACAATGATGCTGTCGTCACAGG; chain 2 UUAACAAUGAUGCUGUCGUCACAGG; chemistry not given here; one strand in two spellings) | − (no growth inhibition with any siRNA)
9 | SEQ ID NO: 4815: siRNA targeting LDHA/5 (chain 1 ATTAAGACGGCTTTCTCCCTCTTGC; chain 2 AUUAAGACGGCUUUCUCCCUCUUGC; chemistry not given here; one strand in two spellings) | − (no growth inhibition with any siRNA)
10 | SEQ ID NO: 4816: siRNA targeting LDHA/5 (chain 1 AAATATGTTCACGTTACGCTGGACC; chain 2 AAAUAUGUUCACGUUACGCUGGACC; chemistry not given here; one strand in two spellings) | + (inhibits by at least 50%)
11 | SEQ ID NO: 4817: siRNA targeting LDHA/5 (chain 1 TATACTCTCTGCCAAATCTGCTACA; chain 2 UAUACUCUCUGCCAAAUCUGCUACA; chemistry not given here; one strand in two spellings) | − (no growth inhibition with any siRNA)
12 | SEQ ID NO: 4818: siRNA targeting PFKL (chain 1 AATGTCTGTCTTCATCTTCTCCGTC; chain 2 AAUGUCUGUCUUCAUCUUCUCCGUC; chemistry not given here; one strand in two spellings) | − (no growth inhibition with any siRNA)
13 | SEQ ID NO: 4819: siRNA targeting PFKL (chain 1 TAGTAGTCATGGCACTTCTCGTTCC; chain 2 UAGUAGUCAUGGCACUUCUCGUUCC; chemistry not given here; one strand in two spellings) | − (no growth inhibition with any siRNA)
14 | SEQ ID NO: 4820: siRNA targeting PFKL (chain 1 TAGTCTCTGAGATCTTACCTTCCGC; chain 2 UAGUCUCUGAGAUCUUACCUUCCGC; chemistry not given here; one strand in two spellings) | − (no growth inhibition with any siRNA)
15 | SEQ ID NO: 4821: siRNA targeting PRPS1 (chain 1 AATTGTCATTGATTTCGCCACAACC; chain 2 AAUUGUCAUUGAUUUCGCCACAACC; chemistry not given here; one strand in two spellings) | − (no growth inhibition with any siRNA)
16 | SEQ ID NO: 4822: siRNA targeting PRPS1 (chain 1 TCCACATTCAGCCTGTCTGCAATGG; chain 2 UCCACAUUCAGCCUGUCUGCAAUGG; chemistry not given here; one strand in two spellings) | − (no growth inhibition with any siRNA)
17 | SEQ ID NO: 4823: siRNA targeting PRPS1 (chain 1 TCAAGATGGCATAAACTCTGGTGGC; chain 2 UCAAGAUGGCAUAAACUCUGGUGGC; chemistry not given here; one strand in two spellings) | + (inhibits by at least 50%)
18 | SEQ ID NO: 4824: siRNA targeting CPS1 (chain 1 ATATGATGCAGCCACCACATGCCTC; chain 2 AUAUGAUGCAGCCACCACAUGCCUC; chemistry not given here; one strand in two spellings) | ++ (inhibits by at least 75%)
19 | SEQ ID NO: 4825: siRNA targeting CPS1 (chain 1 AATACCTTCACCAAAGCAAGCCACC; chain 2 AAUACCUUCACCAAAGCAAGCCACC; chemistry not given here; one strand in two spellings) | − (no growth inhibition with any siRNA)
20 | SEQ ID NO: 4826: siRNA targeting CPS1 (chain 1 TTCCCAAGCATGGTACCCTTATCCC; chain 2 UUCCCAAGCAUGGUACCCUUAUCCC; chemistry not given here; one strand in two spellings) | − (no growth inhibition with any siRNA)
21 | SEQ ID NO: 4828: siRNA targeting CAD (chain 1 TGTCTGAGAAGCCAAGACACTTGGC; chain 2 UGUCUGAGAAGCCAAGACACUUGGC; chemistry not given here; one strand in two spellings) | − (no growth inhibition with any siRNA)
22 | SEQ ID NO: 4829: siRNA targeting CAD (chain 1 AACTGTGTCAATCTGTTTCACTGCT; chain 2 AACUGUGUCAAUCUGUUUCACUGCU; chemistry not given here; one strand in two spellings) | + (inhibits by at least 50%)
23 | SEQ ID NO: 4836: siRNA targeting DHFR (chain 1 AATATCTGAATTCATTCCTGAGCGG; chain 2 AAUAUCUGAAUUCAUUCCUGAGCGG; chemistry not given here; one strand in two spellings) | + (inhibits by at least 50%)
